Key:
Assay type in all cases: binding
Conditions in all cases: for Cross-reaction (%): RIA, 100x/y, masses of testosterone and heterologous compound giving 50% inhibition of binding of the tritiated ligand
[1] = system: Polyclonal Rat IgG to testosterone (from the rats used for the fusion experiments); assay: Dextran-coated charcoal radioimmunoassay (RIA): affinity and specificity of antibody
Experimental: Immunization: Wistar-derived female rats (2 to 3 months old) from the Departmental Colon y were immunized by an intradermal injection of testosterone-3-(O-carboxymethyl)-oxime bovine serum albumin conjugate (200 ug/rat) incorporated in complete Freund's adjuvant. A month later the injection was repeated, and booster injections (100 ug/rat) were given three weeks later. All animals were bled from the tail ten days after the booster injection, and the antisera were tested then for titer and specificity.
(§1) Characterization of antibodies: A dextran-coated charcoal radioimmunoassay method was used to detect specific antibodies to testosterone. Antibody titer denotes the dilution at which 50% of the labelled ligand, added at concentrations of 50 pg./ml., is bound as determined by radioimmunoassay. Cross reactivity (%) was calculated as proposed by Thorneycroft et al ("Immunologic Methods", Steroid Determination, Peron and Caldwell, eds., Appleton-Century-Crofts, New York 1970, pp. 63-86). as 100x/y where x is the mass of testosterone and y is the mass of heterologous compound required to produce 50% inhibition of the binding of the tritiated ligand. Affinity of the antibodies was calculated according to Abraham et al in Handbook of Radioimmunoassay, Marcel Dekker Inc., New York, 1977, pp. 591-656.

[2] = system: monoclonal antibody to testosterone, clone H6 (rat spleen x mouse myeloma NSO/1 hybridoma; heavy chain class Y2a); assay: Dextran-coated charcoal radioimmunoassay (RIA): affinity and specificity of antibody in ascitic fluid
Experimental: as §1
(§2) After two weeks of growth, antibody-secreting hybridomas were detected by a RIA procedure in the tissue culture media of 30 out of the 147 cultures. During subsequent cell culture, 3 hybridoma lines that yielded high antibody titers were cloned by limiting dilutions and sub-cloned on semi-solid agar. When injected i.p. into pristane-trea ted irradiated F₁ mice or nude mice, the hybridomas grew as tumors and secreted high amounts of anti-testosterone antibodies into the ascitic fluid of these mice, with titers ranging from 1:10,000 to 1:60,000 (Table 1).
(§3) Characterization of monoclonal antibodies: The ascitic fluid of mice derived from three hybridomas. H₆, F₂ and D₁₁ was further characterized for affinity and specificity by a dextran-coated RIA procedure.

[3] = system: monoclonal antibody to testosterone, clone F2 (rat spleen x mouse myeloma NSO/1 hybridoma; heavy chain class IgM); assay: as above
Experimental: as §1, §2, §3

[4] = system: monoclonal antibody to testosterone, clone D11 (rat spleen x mouse myeloma NSO/1 hybridoma; heavy chain class Y2a); assay: as above
Experimental: as §1, §2, §3

[5] = calculated according to the method of Abraham et al

Compound | Cross-reaction (%) [1] [%] | Cross-reaction (%) [2] [%] | Cross-reaction (%) [3] [%] | Cross-reaction (%) [4] [%] | Ka [1, 5] [L/mol] | Ka [2, 5] [L/mol] | Ka [3, 5] [L/mol] | Ka [4, 5] [L/mol]
C[C@]12CCC(=O)C[C@@H]1CC[C@@H]1[C@@H]2CC[C@]2(C)[C@@H](O)CC[C@@H]12 [5-alpha-Dihydrotestosterone] | 10 | 100 | 2 | 100 | – | – | – | –
C[C@]12CCC(=O)C[C@H]1CC[C@@H]1[C@@H]2CC[C@]2(C)[C@@H](O)CC[C@@H]12 [5-beta-Dihydrotestosterone] | 2 | 0.5 | 15 | 8.5 | – | – | – | –
C[C@]12CC[C@H]3[C@@H](CCC4=CC(=O)CC[C@@]43C)[C@@H]1CC[C@@H]2O [Testosterone] | 100 | 100 | 100 | 100 | 3.7e+09 | 2.1e+10 | 1e+10 | 1.85e+10

From EP0267996A1, “New nucleotide derivatives” (TAMIR BIOTECHNOLOGY LTD., priority 1986, dated 1988)
